This assay has as its target T1, CRBN-DDB1 complex (Homo sapiens, UniProt Q96SW2).
T1 construct: His6-ZZ-HRV3C (N); made in house; host or cells: Sf9 insect cells (baculovirus co-infection)
As to the kind of experiment: CRBN/DDB1 fluorescence polarization competition assay. Type of assay: binding. The method, then:
CRBN/DDB1 Fluorescence Polarization Assay […]
Unless otherwise stated, the aqueous assay buffer contained 0.02 M HEPES((4-(2-hydroxyethyl)-1-piperazineethanesulfonic acid)) pH 8.0, 0.15 M NaCl, 0.5 mM TCEP ((tris(2-carboxyethyl)phosphine)), 0.05% Tween 20. The assay was conducted using 384 well black plates (ProxiPlate F Plus, Perkin-Elmer, Massachusetts, USA).
Plate Reader. […] Fluorescence […]
polarization was measured in units of millipolarization (mP) and are background corrected. Data were plotted and analyzed using […]
All experiments were performed in triplicate unless otherwise stated. Values are quoted as the geometric […]
Each graph is a representative example of a single biological repeat unless otherwise stated.
CRBN/DDB1 Protein Expression & Purification
Protein expression and purification methods adapted from Lopez-Girona et al.5 Full length human CRBN (accession number NM016302) was amplified by PCR & inserted downstream of the polyhedrin promoter of a pFBDM expression vector which had been modified to introduce a N-terminal His6-ZZ-HRV3C tag. Full length human DDB1 (accession number NM001923) was amplified by PCR with primers which introduced a C-terminal StrepTag and inserted downstream of the p10 promoter of a separate pFBDM expression vector. Baculoviruses were generated according to Bac-to-Bac protocols (Invitrogen) and used to co-infect Sf9 cells grown @ 27 °C in shaker flasks using Insect-XPRESS media (Lonza). Cells were harvested 48 hours post infection and frozen. For purification, pellets were thawed & resuspended in 5 volumes of Histrap buffer A (see below) and lysed […]
Superdex 200 (HiLoad 26/600), ResourceQ (6 mL) and finally a second Superdex 200 (HiLoad 26/600) column. All columns were from GE Healthcare and all purification steps were performed @ 4 °C. HisTrap buffer A: 50mM Tris (2-Amino-2-(hydroxymethyl)propane-1,3-diol), 500mM NaCl, 0.5mM TCEP ((tris(2-carboxyethyl)phosphine), 5% glycerol, pH 8.0. HisTrap Buffer B: + 250 mM imidazole. Superdex 200 buffer: 50mM Tris, 200mM NaCl, 0.5mM TCEP, 5% glycerol, pH 8.0. Resource Q buffer A: 50mM Tris, 0.5mM TCEP, 5% Glycerol, pH8.0. Resource Q buffer B + 1M NaCl.
California, USA) to prepare CRBN/DDB1 concentrations from 0.1 to 500 nM in 10 µL final assay volume containing 5 nM FP- […]
point prior to analysis. The KD was calculated using non-linear regression and a one-site specific binding model.
Analysis of competition assay FP-probe bound fraction […]
fb=probe bound fraction, KD=probe dissociation constant, L0=probe concentration, R0=protein concentration, Ki=ligand […]
CRBN/DDB1 Competition Assay
Compounds as solutions in DMSO were dispensed using an ECHO 550 Liquid Handler (Labcyte Inc).
Tracer controls (5 nM FP-probe S18 assay buffer only) and bound tracer controls (5 nM and 80 nM CRBN/DDB1) were included on each assay plate . Plates were incubated overnight at 4 °C before warming to room temperature and fluorescence polarization measured using an EnVision plate reader (Perkin -Elmer, Massachusetts, USA). IC 50 values […]
Table S2. CRBN/DDB1 Control Compounds
In general terms: Polarisation of emitted light reports the rotation of a fluorescent probe.

Like-named read-outs stand apart in the source and are kept apart here.

The Ki is a measure of affinity in units of concentration, obtained from inhibition or displacement. `O=C1CCC(N2C(=O)c3cccc(OCCOCCOCCN4CCN(Cc5ccc6cc(C(=O)Nc7cc(NC(=O)c8ccc9c(c8)OCCO9)ccc7Cl)ccc6n5)CC4)c3C2=O)C(=O)N1` (stereo not drawn) [PDP 16, N-(2-Chloro-5-(2,3-dihydrobenzo[b][1,4]dioxine-6-carboxamido)phenyl)-2-((4-(2-(2-(2-((2-(2,6-dioxopiperidin-3-yl)-1,3-dioxoisoindolin-4-yl)oxy)ethoxy)ethoxy)ethyl)piperazin-1-yl)methyl)quinoline-6-carboxamide]: the IC50 reads like this: (CRBN/DDB1 FP IC50, single repeat N=2, best-fit value, variable slope four parameters) 323 nM; (best-fit value, variable slope four parameters, read-out: CRBN/DDB1 FP IC50, single repeat N=1) 715 nM; (best-fit value, variable slope four parameters, read-out: CRBN/DDB1 FP IC50, single repeat N=3) 519 nM; (column statistics, read-out: CRBN/DDB1 FP pIC50, mean of 3 values (unrounded) (converted)) 493 nM; (displacement of thalidomide derived fluorescent probe, geometric mean n = 3, read-out: CRBN/DDB1 FP IC50) 490 nM. Further, for the setting “calculated from geometric mean CRBN-DDB1 IC50 and FP-probe KD”, the Ki is 120 nM.

Source of the values: PMC5815658 (Journal of Medicinal Chemistry, 2017).
